Assay results published in patent publication US20130116219A1, “ANTIMICROBIAL CARBOLINE COMPOUNDS” (ALCON RESEARCH, LTD., priority 2011, published 2013).
≈ marks a conversion by molar mass, not a printed value.

Legend:
Ad3 = assay: Plaque reduction assay in A549 cells, Ad3; assay type: cell-based; conditions: unidentified adenovirus, 168 h, approximately 7 d, read-out: Adenovirus Serotype EC50 (μg/mL) Ad3
Experimental: (§1) Compounds of the present invention were tested for potency against AdV serotypes Ad3, Ad4, Ad5, Ad7a, Ad8, Ad19, and Ad37 in a plaque reduction assay, a cell-based assay of AdV replication. Ad8, Ad19, and Ad37 are the serotypes most commonly associated with epidemic keratoconjunctivitis (EKC). Ad3, Ad4, and Ad7a are serotypes most commonly associated with follicular conjunctivitis and serotype Ad5 can replicate in the NZW rabbit model of adenoviral ocular keratitis. Ad3, Ad4, Ad5, Ad7a, Ad8, and Ad19 were recovered at the Charles T. Campbell Ophthalmic Microbiology Laboratory from patients presenting with typical adenoviral ocular disease. No clinical isolates of Ad37 were available, so the ATCC (American Type Culture Collection, Manassas, Va.) reference strain of Ad37 was used.
(§2) EC50 values (μg/ml) for inhibition of adenoviral replication were determined by plaque reduction assay. Briefly, cultured A549 cells were inoculated with approximately 100 pfu of the indicated adenovirus serotype. Inoculated cells were overlaid with methylcellulose medium containing Compound 2 at 100, 10, 1, 0.1, 0.01, and 0.001 μg/ml, and incubated at 37° C./5% CO2 for approximately 7 d. Plates were stained with gentian violet, and plaques were counted in a 25× dissecting microscope. IC50, the concentration that inhibited plaque formation by 50%, was estimated from plots of mean plaque count vs. concentration.

Ad8 = assay: Plaque reduction assay in A549 cells, Ad8; assay type: cell-based; conditions: unidentified adenovirus, A549, 168 h, read-out: Adenovirus Serotype EC50 (μg/mL) Ad8
Experimental: as §1, §2

Ad37 = assay: Plaque reduction assay in A549 cells, Ad37; assay type: cell-based; conditions: unidentified adenovirus, 168 h, approximately 7 d, ATCC reference strain, read-out: Adenovirus Serotype EC50 (μg/mL) Ad37
Experimental: as §1, §2

Ad19 = assay: Plaque reduction assay in A549 cells, Ad19; assay type: cell-based; conditions: unidentified adenovirus, 168 h, approximately 7 d, read-out: Adenovirus Serotype EC50 (μg/mL) Ad19
Experimental: as §1, §2

Ad7a = assay: Plaque reduction assay in A549 cells, Ad7a; assay type: cell-based; conditions: unidentified adenovirus, 168 h, approximately 7 d, read-out: Adenovirus Serotype EC50 (μg/mL) Ad7a
Experimental: as §1, §2

Ad4 = assay: Plaque reduction assay in A549 cells, Ad4; assay type: cell-based; conditions: unidentified adenovirus, 168 h, approximately 7 d, read-out: Adenovirus Serotype EC50 (μg/mL) Ad4
Experimental: as §1, §2

Ad5 [1] = assay: Plaque reduction assay in A549 cells, Ad5; assay type: cell-based; conditions: unidentified adenovirus, A549, 168 h, read-out: Adenovirus Serotype EC50 (μg/mL) Ad5
Experimental: as §1, §2

Ad5 [2] = assay: Ad5 genome replication assay (cell-based QPCR) in A549 cells; conditions: Human adenovirus sp., A549, 72 h, read-out: Ad5 qPCR EC50 (μM)
Experimental: Compounds of the present invention were tested for potency against Ad5 in an Ad5 genome replication assay, a cell-based QPCR assay of Ad5 genome replication in A549 cells, a human lung carcinoma cell line. Serotype of human Ad5, used in this replication assay can also replicate in a NZW rabbit model of adenoviral ocular keratitis.
EC50 values (μM) for inhibition of adenoviral replication were determined by QPCR. Briefly, 10,000 cultured A549 cells were inoculated with 25,000 pfu/well for 3 hrs in 2% FBS F12-K A549 culture media. Following inoculation, A549 cells were treated with log unit dilutions of compound of Formula I (˜10 μM thru˜10 pM) in 10% FBS F12-K culture media with 0.3% DMSO for an additional 3 days. Cell viability was assessed with Alamar Blue (10 μl/well for 2 hrs; fluorescence Ex353; Em595 nm). Plates were washed 3 times with 125 μl PBS, cell lysates were prepared for QPCR analysis using Cells to SNP kit (Life Technologies). Ad5 genome levels per cell were determined with RNaseP and Ad5 hexon Taqman Assays (Life Technologies). EC50, the concentration that inhibited Ad5 genome replication formation by 50%, was estimated from plots of Ad5 genomes/cell vs. compound concentration.

Row | Structure (SMILES) | EC50 (Ad5 [2]) [µM] | further results
1 | CC(C)C[C@H]1c2[nH]c3ccc(Cl)cc3c2CCN1C(=O)CNC1CC1 [Compound 91, (S)-1-(6-chloro-1-isobutyl-3,4-dihydro-1H-pyrido[3,4-b]indol-2(9H)-yl)-2-(cyclopropylamino)ethanone] | < 0.1 | EC50 (Ad3): 0.1 to 1 µg/mL (≈ 0.278 to 2.78 µM); EC50 (Ad8): 0.1 to 1 µg/mL (≈ 0.278 to 2.78 µM); EC50 (Ad37): 0.1 to 1 µg/mL (≈ 0.278 to 2.78 µM); EC50 (Ad19): 0.1 to 1 µg/mL (≈ 0.278 to 2.78 µM); EC50 (Ad7a): 0.1 to 1 µg/mL (≈ 0.278 to 2.78 µM); EC50 (Ad4): 0.1 to 1 µg/mL (≈ 0.278 to 2.78 µM); EC50 (Ad5 [1]): < 0.1 µg/mL
2 | CC(C)C[C@H]1c2[nH]c3ccc(Cl)cc3c2CCN1C(=O)C1CN(CCC(F)(F)F)C1 [Compound 47, (S)-(6-chloro-1-isobutyl-3,4-dihydro-1H-pyrido[3,4-b]indol-2(9H)-yl)(1-(3,3,3-trifluoropropyl)azetidin-3-yl)methanone] | 0.1 to 1 | EC50 (Ad3): 0.1 to 1 µg/mL (≈ 0.226 to 2.26 µM); EC50 (Ad8): 0.1 to 1 µg/mL (≈ 0.226 to 2.26 µM); EC50 (Ad37): 0.1 to 1 µg/mL (≈ 0.226 to 2.26 µM); EC50 (Ad19): 0.1 to 1 µg/mL (≈ 0.226 to 2.26 µM); EC50 (Ad7a): 0.1 to 1 µg/mL (≈ 0.226 to 2.26 µM); EC50 (Ad4): 0.1 to 1 µg/mL (≈ 0.226 to 2.26 µM); EC50 (Ad5 [1]): 0.1 to 1 µg/mL (≈ 0.226 to 2.26 µM)
3 | Cc1nnc(CCC(=O)N2CCc3c([nH]c4ccc(Cl)cc34)C2CC(C)C)o1 (centres unmarked) [Compound 82] | 0.1 to 1 | –
4 | CC(C)C[C@H]1c2[nH]c3ccc(Cl)cc3c2CCN1C(=O)C1CN(CC(F)F)C1 [Compound 54] | 0.1 to 1 | –
5 | CC(C)CC1c2[nH]c3ccc(Cl)cc3c2CCN1C(=O)C(C)(C)CN1CCC(F)(F)CC1 (centres unmarked) [Compound 33] | > 1 | –
6 | CC(C)CC1c2[nH]c3ccc(Cl)cc3c2CCN1C(=O)CNc1ccccc1 (centres unmarked) [Compound 70] | < 0.1 | –
7 | CC(C)CC1c2[nH]c3ccc(Cl)cc3c2CCN1C(=O)CNCc1ccco1 (centres unmarked) [Compound 89] | > 1 | –
8 | CC(C)CC1c2[nH]c3ccc(Cl)cc3c2CCN1C(=O)c1cccnc1 (centres unmarked) [Compound 64] | 0.1 to 1 | –
9 | CC(C)C[C@H]1c2[nH]c3ccc(Cl)cc3c2CCN1C(=O)CNC1CCC(F)(F)CC1 [Compound 94, (S)-1-(6-chloro-1-isobutyl-3,4-dihydro-1H-pyrido[3,4-b]indol-2(9H)-yl)-2-((4,4-difluorocyclohexyl)amino)ethanone] | < 0.1 | –
10 | CC(C)CC1c2[nH]c3ccc(Cl)cc3c2CCN1C(=O)CCc1ccc(O)cc1 (centres unmarked) [Compound 72] | > 1 | –
11 | CC(C)CC1c2[nH]c3ccc(Cl)cc3c2CCN1C(=O)[C@@H](N)Cc1ccccc1 (some centres unmarked) [Compound 76] | > 1 | –
12 | CC(C)CC1c2[nH]c3ccc(Cl)cc3c2CCN1C(=O)CC1CCN(C2CC2)CC1 (centres unmarked) [Compound 75] | 0.1 to 1 | –
13 | CC(C)C[C@H]1c2[nH]c3ccc(Cl)cc3c2CCN1C(=O)CCNC1CCC(F)(F)CC1 [Compound 34] | > 1 | –
14 | CC(C)(C)CC1c2[nH]c3ccc(Cl)cc3c2CCN1C(=O)CCN1CCC(C(F)F)CC1 (centres unmarked) [Compound 32] | > 1 | –
15 | CC(C)CC1c2[nH]c3ccc(Cl)cc3c2CCN1C1CC1 (centres unmarked) [Compound 95] | < 0.1 | –
16 | CC(C)CC1c2[nH]c3ccc(Cl)cc3c2CCN1C(=O)CN1CCOCC1 (centres unmarked) [Compound 55] | > 1 | –
17 | CC(C)CC1c2[nH]c3ccc(Cl)cc3c2CCN1C(=O)CCc1ccco1 (centres unmarked) [Compound 58] | < 0.1 | –
18 | CC(C)CC1c2[nH]c3ccc(Cl)cc3c2CCN1C(=O)C1CN(c2ncccn2)C1 (centres unmarked) [Compound 81] | 0.1 to 1 | –
19 | CC(C)C[C@H]1c2[nH]c3ccc(Cl)cc3c2CCN1C(=O)CCN1CCC(C(F)F)CC1 [Compound 29, (S)-1-(6-chloro-1-isobutyl-3,4-dihydro-1H-pyrido[3,4-b]indol-2(9H)-yl)-3-(4-(difluoromethyl)piperidin-1-yl)propan-1-one] | 0.1 to 1 | –
20 | CC(C)CC1c2[nH]c3ccc(Br)cc3c2CCN1C(=O)CCN1CCC(F)(F)CC1 (centres unmarked) [Compound 45] | < 0.1 | –
21 | CC(C)CC1c2[nH]c3ccc(Cl)cc3c2CCN1c1nc(CN2CCC(F)(F)CC2)co1 (centres unmarked) [Compound 56] | 0.1 to 1 | –
22 | CC(C)CC1c2[nH]c3ccc(Cl)cc3c2CCN1C(=O)OCCN1CCC(C(F)F)CC1 (centres unmarked) [Compound 22] | > 1 | –
23 | CC(C)CC1c2[nH]c3ccc(Cl)cc3c2CCN1C(=O)OCCN1CCC(C(F)(F)F)C1 (centres unmarked) [Compound 17] | 0.1 to 1 | –
24 | CC(C)CC1c2[nH]c3ccc(Cl)cc3c2CCN1C(=O)Cc1ccncc1 (centres unmarked) [Compound 61] | > 1 | –
